In the assay the target is T1, M2 receptor (Homo sapiens, UniProt P08172).
T1 sequence (P08172 1-466): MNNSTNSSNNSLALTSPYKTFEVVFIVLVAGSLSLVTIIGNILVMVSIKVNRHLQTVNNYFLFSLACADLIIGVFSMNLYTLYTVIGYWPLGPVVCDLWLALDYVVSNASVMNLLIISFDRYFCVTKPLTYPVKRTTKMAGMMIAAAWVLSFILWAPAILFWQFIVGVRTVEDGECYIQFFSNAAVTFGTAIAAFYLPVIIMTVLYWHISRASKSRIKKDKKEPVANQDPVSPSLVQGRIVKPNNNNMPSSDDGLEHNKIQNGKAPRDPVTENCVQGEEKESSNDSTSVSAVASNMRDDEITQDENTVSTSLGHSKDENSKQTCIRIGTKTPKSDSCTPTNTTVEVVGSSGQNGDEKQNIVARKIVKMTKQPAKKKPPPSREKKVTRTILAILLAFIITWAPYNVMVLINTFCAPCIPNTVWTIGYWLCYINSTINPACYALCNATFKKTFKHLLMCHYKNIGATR
The assay can be described thus: BRET real-time monitoring of G-protein activation via M2 in HEK293T/17 cells. It counts as cell-based. More on the design: expressed in transfected cells; host or cells: HEK293T/17 cells, transient transfection. The following applies: for Activation of Gαi/o and Gα15 types: saturating concentration (100 μM; 1 mM for JB-12-2, JB-13-1). The protocol:
HE/K293T17 cells were obtained from The Global Bioresource Center ATCC (Manassas, VA, USA). Cells were grown in 100 mm petri dishes in Dulbecco’s modified Eagle’s medium (DMEM) supplemented with 10% fetal bovine serum (FBS), MEM non-essential amino acids, 1 mM sodium pyruvate, and antibiotics (100 units/ml penicillin and 100 μg/ml streptomycin) at 37 °C in a humidified incubator containing 5% CO2[41]. Transfection was performed according to Masuho et al.[41]. Culture dishes (3.5 cm) were coated by incubation for 10 min at 37 °C with 1 ml of Matrigel solution [approximately 10 μg/ml of growth factor-reduced Matrigel (BD biosciences; LOT: 2278001) in culture medium]. For transfections, cells were seeded in the 3.5 cm dishes containing the Matrigel solution at a density of 1.7 × 10^6 cells/dish. Four hours later, the cells were transfected with the appropriate expression constructs (total of 5 μg DNA per dish) with the reagents PLUS (5 μl/dish) and Lipofectamine LTX (Thermo Fisher Scientific; LOT: 2640614) (6 μl/dish). The cells were transfected with the Venus 156-239-Gβ1 (0.21 μg), Venus 1–155-Gγ2 (0.21 μg), and masGRK3ct-Nluc (0.21 μg) constructs in addition to the different amounts of constructs for the M2 receptor and Gα of interest. Gα14 subunit was co-transfected with Ric-8A chaperone (0.21 μg). Cells were cotransfected with a pcDNA3.1 construct encoding the catalytic subunit of pertussis toxin (PTX-S1) (0.21 μg) and constructs encoding Gα15, Gα14, Gα11, Gαq to ensure that the small BRET signals were not contaminated by the possible recruitment of endogenous Gαi/o proteins. The empty vector pcDNA3.1 was used to normalize the amount of DNA in each transfection.
To examine the activation of G-protein signalling in live cells, agonist-dependent cellular measurements of BRET between Venus-Gβ1γ2 and masGRK3ct-Nluc were performed as described by Masuho et al.[41]. […]. Cells were harvested by centrifugation at 500×g for 5 min and were resuspended in BRET buffer. About 50,000 to 100,000 cells per well were distributed in 96-well flat-bottomed white microplates (Greiner Bio-One) in a volume of 25 µl. 25 µl of 2× luciferase substrate: Nano-Glo™ luciferase assay substrate (Promega; LOT: 0000527335) dissolved in 250 volumes of BRET buffer was added. BRET measurements were made with a microplate reader (POLARstar Omega, BMG Labtech) equipped with two emission photomultiplier tubes, which enabled the detection of two emissions simultaneously with the highest possible resolution of 20 ms per data point. All measurements were performed at room temperature. The BRET signal was determined by calculating the ratio of the light emitted by Venus-Gβ1γ2 (535 nm with a 30 nm band path width) to the light emitted by masGRK3ct-Nluc (475 nm with a 30 nm band path width). The average baseline value (basal BRET ratio) recorded before stimulation of cells with an agonist was subtracted from the experimental BRET signal values to obtain the ΔBRET ratio.
The ΔBRET ratio from real-time monitoring of G-protein activation was fitted using monophasic association according to Eq. 9.9 Y=Beq×(1-exp-Kobs×x where y is the ΔBRET ratio of the light emitted by Venus-Gβ1γ2 (535/30) to the light emitted by masGRK3ct-Nluc (475/30). Beq is Y-value at the equilibrium expressing the maximal amplitude of ΔBRET ratio, x is time and Kobs is the observed rate of Gα subunit activation.
A general note: In BRET a luciferase serves as donor, and the signal depends on an acceptor being close.

SMILES strings stand for the structures.

Turning to `C[N+](C)(C)CCOC(N)=O` [CBC, carbachol, reference compound], the “Activation of Gαi/o and Gα15 types” value is “activated all tested Gαi/o types and promiscuous Gα15”. Also, the “Maximal amplitude at Gi1 as % of GoA” value (CBC 100 μM) is reported as ~ 25%. On to `c1csc(C[N+]23CCC(CC2)CC3)c1` [JB-8A], for which the “Activation of Gαi/o and Gα15 types” value is “did not detect”. For the compound `C[N+]1(Cc2cccs2)CCOCC1` [JB-12-2], the “Activation of GoA and GoB, % of CBC magnitude” value (saturating concentration (JR-6 100 μM, JB-12-2 1 mM)) was “approximately 12%”. With `COC(=O)C1=CCCN(Cc2cccs2)C1` [JB-13-1], the “Activation of Gαi/o and Gα15 types” value is “activated only GαoA”. Take `C[N+]1(Cc2ccc(Cl)s2)CC=CCC1` (stereo not drawn) [PN-152, 1-[(5-chlorothiophen-2-yl)methyl]-1-methyl-1,2,3,6-tetrahydropyridin-1-ium]: the “Activation of Gαi/o and Gα15 types” value is on record as “did not detect”.

These data come from article PMC11053168, “Agonist-selective activation of individual G-proteins by muscarinic receptors” (Scientific Reports, 2024).
